Source: ChEMBL document CHEMBL5316302, “Deciphering Nonbioavailable Substructures Improves the Bioavailability of Antidepressants by Serotonin Transporter” (J Med Chem, 2023)
The source made the active and inactive calls. The calls are words filed in the database; no cut-off is given here.

Legend:
[1] = Cmax in Sprague-Dawley rat at 1 mg/kg, iv measured upto 24 hrs by LC-MS/MS analysis; format: ADME, organism-based; parameters: time < 24 hrs, dose 1 mg/kg, route iv; settings: in vivo
[2] = AUC (0 to t) in Beagle dog at 5 mg/kg, po measured upto 24 hrs by LC-MS/MS analysis; format: ADME, organism-based, Canis lupus familiaris; parameters: dose 5 mg/kg, time < 24 hrs, route po; settings: in vivo
[3] = Oral bioavailability in Sprague-Dawley rat at 5 mg/kg measured upto 24 hrs by LC-MS/MS analysis; format: ADME, organism-based; settings: in vivo
[4] = Half life in Beagle dog at 5 mg/kg, po measured upto 24 hrs by LC-MS/MS analysis; format: ADME, organism-based, Canis lupus familiaris; settings: in vivo
[5] = AUC (0 to t) in Beagle dog at 1 mg/kg, iv measured upto 24 hrs by LC-MS/MS analysis; format: ADME, organism-based, Canis lupus familiaris; parameters: dose 1 mg/kg, time < 24 hrs, route iv; settings: in vivo
[6] = AUC (0 to t) in Sprague-Dawley rat at 2.5 mg/kg, po measured upto 24 hrs by LC-MS/MS analysis; format: ADME, organism-based; parameters: dose 2.5 mg/kg, time < 24 hrs, route po; settings: in vivo
[7] = Oral bioavailability in Sprague-Dawley rat at 2.5 mg/kg measured upto 24 hrs by LC-MS/MS analysis; format: ADME, organism-based; settings: in vivo
[8] = Clearance in Beagle dog at 1 mg/kg, iv measured upto 24 hrs by LC-MS/MS analysis; format: ADME, organism-based, Canis lupus familiaris; settings: in vivo
[9] = Volume of distribution at steady state in Beagle dog at 1 mg/kg, iv measured upto 24 hrs by LC-MS/MS analysis; format: ADME, organism-based, Canis lupus familiaris; settings: in vivo, read-out: Vdss
[10] = molecular target: Sodium-dependent serotonin transporter (Homo sapiens, UniProt P31645); assay: Inhibition of SERT receptor (unknown origin)
[11] = Clearance in Sprague-Dawley rat at 1 mg/kg, iv measured upto 24 hrs by LC-MS/MS analysis; format: ADME, organism-based; settings: in vivo; for CL: iv, 1 mg/kg, 24 h
[12] = Half life in Sprague-Dawley rat at 1 mg/kg, iv measured upto 24 hrs by LC-MS/MS analysis; format: ADME, organism-based; settings: in vivo
[13] = Cmax in Beagle dog at 1 mg/kg, iv measured upto 24 hrs by LC-MS/MS analysis; format: ADME, organism-based, Canis lupus familiaris; parameters: dose 1 mg/kg, time < 24 hrs, route iv; settings: in vivo
[14] = Cmax in Sprague-Dawley rat at 2.5 mg/kg, po measured upto 24 hrs by LC-MS/MS analysis; format: ADME, organism-based; parameters: dose 2.5 mg/kg, time < 24 hrs, route po; settings: in vivo
[15] = Volume of distribution at steady state in Sprague-Dawley rat at 1 mg/kg, iv measured upto 24 hrs by LC-MS/MS analysis; format: ADME, organism-based; settings: in vivo, read-out: Vdss
[16] = AUC (0 to t) in Sprague-Dawley rat at 1 mg/kg, iv measured upto 24 hrs by LC-MS/MS analysis; format: ADME, organism-based; parameters: time < 24 hrs, dose 1 mg/kg, route iv; settings: in vivo; for AUCt: 24 h
[17] = Cmax in Beagle dog at 5 mg/kg, po measured upto 24 hrs by LC-MS/MS analysis; format: ADME, organism-based, Canis lupus familiaris; parameters: time < 24 hrs, dose 5 mg/kg, route po; settings: in vivo
[18] = Half life in Sprague-Dawley rat at 2.5 mg/kg, po measured upto 24 hrs by LC-MS/MS analysis; format: ADME, organism-based; settings: in vivo
[19] = Half life in Beagle dog at 1 mg/kg, iv measured upto 24 hrs by LC-MS/MS analysis; format: ADME, organism-based, Canis lupus familiaris; settings: in vivo
[20] = Ratio of drug concentration in brain to plasma in Sprague-Dawley rat at 10 mg/kg, ip measured at 120 min by LC-MS/MS analysis; format: ADME, organism-based; settings: read-out: BPR
Hypothalamus [21] = assay: Inhibition of PCA-induced serotonin depletion in Sprague-Dawley rat hypothalamus assessed as recovery of 5-HT concentration at 1 mg/kg, ip by HPLC analysis; format: functional, organism-based
[22] = Ratio of drug concentration in brain to plasma in Sprague-Dawley rat at 10 mg/kg, ip measured at 15 min by LC-MS/MS analysis; format: ADME, organism-based; settings: read-out: BPR
[23] = Drug concentration in Sprague-Dawley rat plasma at 10 mg/kg, ip measured at 120 min by LC/MS-MS analysis; format: ADME, organism-based
Rattus norvegicus [24] = assay: Antidepressant activity in Sprague-Dawley rat assessed as reduction in immobility time at 10 mg/kg ip measured after 15 mins by forced swim test; format: functional; settings: 0.25 h
[25] = Drug concentration in Sprague-Dawley rat brain at 10 mg/kg, ip measured at 60 min by LC/MS-MS analysis; format: ADME, organism-based; settings: read-out: Ct
Rattus norvegicus [26] = assay: Antidepressant activity in ip dosed Sprague-Dawley rat assessed as reduction in immobility time measured after 15 mins by forced swim test; format: functional, organism-based; settings: dose 3-10 mg/kg
[27] = Ratio of drug concentration in brain to plasma in Sprague-Dawley rat at 10 mg/kg, ip measured at 60 min by LC-MS/MS analysis; format: ADME, organism-based; settings: read-out: BPR
[28] = Drug concentration in Sprague-Dawley rat plasma at 10 mg/kg, ip measured at 15 min by LC/MS-MS analysis; format: ADME, organism-based
[29] = Drug concentration in Sprague-Dawley rat brain at 10 mg/kg, ip measured at 15 min by LC/MS-MS analysis; format: ADME, organism-based; settings: read-out: Ct
[30] = Drug concentration in Sprague-Dawley rat brain at 10 mg/kg, ip measured at 120 min by LC/MS-MS analysis; format: ADME, organism-based; settings: read-out: Ct
Hypothalamus [31] = assay: Inhibition of PCA-induced serotonin depletion in Sprague-Dawley rat hypothalamus assessed as recovery of 5-HT concentration at 10 mg/kg, ip by HPLC analysis (Rvb= 200 ng/g); format: functional
[32] = Drug concentration in Sprague-Dawley rat plasma at 10 mg/kg, ip measured at 60 min by LC/MS-MS analysis; format: ADME, organism-based
[33] = Oral bioavailability in human at 2.5 to […]; format: ADME, organism-based; settings: in vivo, dose lower 2.5 mg/kg
Hypothalamus [34] = assay: Inhibition of PCA-induced serotonin depletion in Sprague-Dawley rat hypothalamus assessed as recovery of 5-HT concentration at 3 mg/kg, ip by HPLC analysis; format: functional, organism-based
Rattus norvegicus [35] = assay: Antidepressant activity in Sprague-Dawley rat assessed as reduction in immobility time at 3 mg/kg ip measured after 15 mins by forced swim test; format: functional; settings: 0.25 h

Sequence of Sodium-dependent serotonin transporter (P31645 whole entry): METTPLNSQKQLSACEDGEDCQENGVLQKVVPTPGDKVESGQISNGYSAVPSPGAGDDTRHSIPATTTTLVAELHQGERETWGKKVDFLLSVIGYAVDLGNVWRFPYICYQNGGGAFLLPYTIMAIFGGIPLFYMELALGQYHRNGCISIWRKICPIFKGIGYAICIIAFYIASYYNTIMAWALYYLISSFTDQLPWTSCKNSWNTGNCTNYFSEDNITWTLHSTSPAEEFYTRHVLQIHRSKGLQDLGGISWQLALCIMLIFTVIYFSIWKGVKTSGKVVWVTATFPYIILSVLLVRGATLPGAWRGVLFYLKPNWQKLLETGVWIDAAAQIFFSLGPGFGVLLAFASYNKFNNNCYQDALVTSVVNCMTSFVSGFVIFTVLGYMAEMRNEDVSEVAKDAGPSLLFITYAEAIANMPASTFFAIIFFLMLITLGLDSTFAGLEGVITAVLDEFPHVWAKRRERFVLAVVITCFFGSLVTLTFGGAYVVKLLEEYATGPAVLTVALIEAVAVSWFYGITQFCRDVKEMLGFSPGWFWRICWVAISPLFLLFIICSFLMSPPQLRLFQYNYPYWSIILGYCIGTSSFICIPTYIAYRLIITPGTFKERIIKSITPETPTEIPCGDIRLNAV

SMILES | Cmax [1] [ng/mL] | AUC(0-t) at 24 h [2] [ng·h/mL] | bioavailability [3] [%] | half-life [4] [h] | AUCt [5] [ng·h/mL] | AUC(0-t) at 24 h [6] [ng·h/mL] | bioavailability [7] [%] | CL [8] [mL/min/kg] | Vd [9] [L/kg] | IC50 [10] [nM] | CL [11] [mL/min/kg] | half-life [12] [h] | Cmax [13] [ng/mL] | Cmax [14] [ng/mL] | Vd [15] [L/kg] | AUCt [16] [ng·h/mL] | Cmax [17] [ng/mL] | half-life [18] [h] | half-life [19] [h] | other results
N#Cc1ccc2[nH]cc(CCCCN3CCN(c4ncc(-c5cccc(C(N)=O)c5)cn4)CC3)c2c1 | 400 | 4310 | 37.2 | 4.46 | 2330 | 706 | 39.2 | 118 | 2.13 | 0.35 | 382 | 1.59 | 1100 | 241 | 2.33 | 722 | 662 | 1.95 | 4.68 | 
N#Cc1ccc2[nH]cc(CCCCN3CCN(c4ncc(-c5ccc(C(N)=O)cc5)cn4)CC3)c2c1 |  |  |  |  |  |  |  |  |  | < 2 |  |  |  |  |  |  |  |  |  | 
N#Cc1ccc2[nH]cc(CCCCN3CCN(c4ncc(-c5ccc(F)cc5F)cn4)CC3)c2c1 | 193 | 7540 | 53.5 | 16.4 | 2820 | 2790 | 83.3 | 85.7 | 3.4 | 0.58 | 193 | 7.53 | 520 | 180 | 6.41 | 1340 | 794 | 7.28 | 4.39 | Kp at 2 h [20]: 3.17; Activity (Hypothalamus [21]): Active; Kp at 0.25 h [22]: 1.82; concentration at 2 h [23]: 935 ng/mL; Time (Rattus norvegicus [24]): <100 s; concentration at 1 h [25]: 2240 ng/g; Activity (Rattus norvegicus [26]): Dose-Dependent Effect; Kp at 1 h [27]: 3.45; concentration at 0.25 h [28]: 253 ng/mL; concentration at 0.25 h [29]: 459 ng/g; concentration at 2 h [30]: 2960 ng/g; Activity (Hypothalamus [31]): 500 ng/g; concentration at 1 h [32]: 651 ng/mL
COc1cc(F)ccc1-c1cnc(N2CCN(CCCCc3c[nH]c4ccc(C#N)cc34)CC2)nc1 |  |  |  |  |  |  |  |  |  | < 2 |  |  |  |  |  |  |  |  |  | 
N#Cc1ccc2[nH]cc(CCCCN3CCN(c4ncc(-c5ccc(F)cc5)cn4)CC3)c2c1 |  |  |  |  |  |  |  |  |  | < 2 |  |  |  |  |  |  |  |  |  | 
Cc1ccc(Sc2ccccc2N2CCNCC2)c(C)c1 [VORTIOXETINE] |  |  |  |  |  |  |  |  |  |  |  |  |  |  |  |  |  |  |  | bioavailability [33]: 75%
COc1ccccc1-c1cnc(N2CCN(CCCCc3c[nH]c4ccc(C#N)cc34)CC2)nc1 |  |  |  |  |  |  |  |  |  | < 2 |  |  |  |  |  |  |  |  |  | 
N#Cc1ccc2[nH]cc(CCCCN3CCN(c4ncc(-c5ccc(Cl)cc5)cn4)CC3)c2c1 | 444 | 6800 | 47.8 | 15.7 | 2840 | 2950 | 52.6 | 61 | 5.52 | 0.32 | 125 | 9.52 | 536 | 207 | 5.46 | 1870 | 820 | 9.73 | 20.8 | 
N#Cc1ccc2[nH]cc(CCCCN3CCN(c4ccc5oc(C(N)=O)cc5c4)CC3)c2c1 [VILAZODONE] |  | 2020 | 52.5 | 2.15 | 791 | 443 | 47.5 |  | 2.14 |  |  | 1.45 | 488 | 173 | 3.74 |  | 454 | 2.9 | 1.32 | Kp at 2 h [20]: 0.53; Kp at 0.25 h [22]: 0.56; concentration at 2 h [23]: 861 ng/mL; concentration at 1 h [25]: 606 ng/g; Kp at 1 h [27]: 0.46; clearance ([11]; Sprague-Dawley): 40.2 mL/min/kg; concentration at 0.25 h [28]: 1330 ng/mL; AUC(0-t) at 24 h ([16]; Sprague-Dawley): 409 ng·h/mL; concentration at 0.25 h [29]: 190 ng/g; concentration at 2 h [30]: 457 ng/g; Activity (Hypothalamus [31]): 400 ng/g; Activity (Hypothalamus [34]): Active; concentration at 1 h [32]: 1330 ng/mL; Time (Rattus norvegicus [35]): 100 s
